{"source": "patent US8629174B2", "about": "“Unifying mechanism and methods to prevent cancer and neurodegenerative diseases” (Prevention L.L.C., priority 2002, dated 2014)", "key": {"DNA": {"tested_on": "DNA", "assay": "Reaction of E2-3,4-Q or enzymatically-activated 4-OHE2 with DNA in vitro", "type": "biochemical", "conditions": "enzymatically activated (peroxidases, tyrosinase, microsomes), all cases", "protocol": "To determine whether DNA adducts are formed in biological systems, E2-3,4-Q or enzymatically-activated 4-hydroxyestradiol (4-OHE2) was reacted with DNA for 2 h at 37° C. The stable adducts were quantified by the ^32P-postlabeling method, and the depurinating adducts were analyzed by high pressure liquid chromatography (HPLC) interfaced with an electrochemical detector. When E2-3,4-Q reacted with DNA, almost the same amount of the depurinating adducts 4-OHE2-1-N3Ade and 4-OHE2-1-N7Gua were obtained, and the amount of stable adducts was 0.02% of the depurinating ones. Activation of 4-OHE2 by horseradish peroxidase gave similar results, whereas the mammalian lactoperoxidase produced a similar amount of N3Ade adduct, but about 50% more N7Gua adduct. The same two depurinating adducts were obtained in equal but smaller amounts when 4-OHE2 was activated with tyrosinase or phenobarbital-induced rat liver microsomes. In all cases, the level of stable adducts was 0.02% or less compared to the depurinating adducts (Li K. M., et al., Proc. Am. Assoc. Cancer Res., 39, 636 (1998); Cavalieri, et al., unpublished results)."}, "[1]": {"tested_on": "H-ras gene codon 61 (CAA to CTA)", "assay": "PCR-RFLP detection of H-ras codon 61 mutations in treated mouse skin", "type": "in vivo", "text": "In this technique, a segment of the H-ras gene is PCR-amplified and the product is restricted with XbaI to examine the induction of a RFLP from the codon 61 mutation. It was observed that at one day, 0.1% of the H-ras genes in the treated area of skin contained the codon 61 mutation, and then the population of these mutations increased to a maximum of 5% between 3 and 4 days after DB[a,l]P treatment. Subsequently, the level of mutations was reduced to background levels (0.0001%). The early time of induction of the codon 61 mutations (one day after DB[a,l]P treatment) coincides with suppression of DNA synthesis and induction of excision repair. Therefore, perhaps DB[a,l]P-induced DNA damage is converted into mutations by error-prone excision repair in pre-S-phase cells. (Chakravarti D., et al., Oncogene, 16, 3203-3210 (1998); Slaga T. J., et al., Cancer Res., 34a, 771-777 (1974); Sawyer T. W., et al., Carcinogenesis, 9, 1197-1202 (1988); Gill R. D., et al., Environ. Mol. Mutagen., 18, 200-206 (1991).)"}, "H-ras gene": {"tested_on": "H-ras gene", "assay": "H-ras mutation spectra in treated mouse skin (PCR, cloning, sequencing, with or without TDG treatment)", "type": "in vivo", "conditions": "for A/T to G/C mutations, percent of total mutations / A/T to G/C mutations/total mutations: skin DNA", "protocol": "Evidence in support of this was obtained from a comparative study of mutations in the mouse skin H-ras gene induced by 200 nmol of DB[a,l]P or 200 nmol of anti-DB[a,l]P-11,12-dihydrodiol-13,14-epoxide (anti-DB[a,l]PDE). Unlike DB[a,l]P, anti-DB[a,l]PDE forms 97% stable adducts and 3% depurinating adducts in DNA. In these experiments, the types of mutations that are induced in the early preneoplastic times was identified (12 h to 9 days after treatment) and then analyzed whether these mutations were induced as a result of error-prone repair (FIG. 4). The mutations were identified by PCR amplifying a segment of the H-ras gene from DNA extracted from mouse skin treated with one of the carcinogens, cloning the PCR products in a plasmid, isolating individual subclones and sequencing the H-ras inserts to identify mutations. (Chakravarti D., et al., Mutation Res., 456, 17-32 (2000); Cavalieri E. L. and Rogan E. G., Mechanisms of tumor initiation by polycyclic aromatic hydrocarbons in mammals. In: The Handbook of Environmental Chemistry: PAHs and Related Compounds, 3J, 81-117, Neilson A. H. (ed.), Springer, Heidelberg, Germany (1998).)\nIn this technique, G.T heteroduplexes in skin DNA are converted to G.apyrimidinic sites by treatment with T.G-DNA glycosylase (TDG) (FIG. 5). (Chakravarti D., et al., Mutation Res., 456, 17-32 (2000).)\nSince abasic site-containing DNA molecules are refractory to PCR amplification, the conversion of G.T heteroduplexes into G. apyrimidinic sites makes H-ras molecules containing these heteroduplexes unamplifiable. […] As a result, PCR amplification of the H-ras gene from TDG-treated skin DNA, followed by cloning the PCR product and isolating and determining the sequence of individual subclones, causes a specific, drastic reduction of A to G mutations in the mutation spectra. In addition, the preferential PCR amplification artificially enriches low-abundance mutations that are observed only in TDG-treated spectra.\nFollowing the entry of skin cells into S-phase, however, the G.T heteroduplexes are converted into G.C and A.T base pairs by one round of replication. […] Thus, the specific reduction of A to G mutations in the mutation spectra by the TDG-PCR procedure characterizes these mutations as G.T heteroduplexes. […] Therefore, A to G mutations remained as G.T heteroduplexes until one day after DB[a,l]P treatment of the skin; beyond which they were present as G.C and A.T mutations, presumably by replication. Flow cytometric analysis of epidermal keratinocytes isolated from DB[a,l]P-treated mouse skin confirms that cells begin to enter the S-phase one day after the treatment. (Chakravarti D., et al., Mutation Res., 456, 17-32 (2000); Chakravarti et al., unpublished results).\nTreatment of mouse skin with 200 nmol of E2-3,4-Q induced primarily A/T to G/C mutations in the H-ras gene (FIG. 7). For example, 6 h after E2-3,4-Q treatment, 7 mutations were identified among 29 H-ras inserts. Five of the seven were A/T to G/C mutations. At 12 h, four out of the six mutations found in 30 H-ras inserts were A/T to G/C mutations. […] The observation that E2-3,4-Q induces mutations at 6 h is, therefore, a basis to propose that these mutations are induced by error-prone repair. To confirm this, TDG-PCR analysis of these mutations was conducted (FIG. 7). […] At 12 h, the change was from 4 in 30 H-ras inserts to 0 in 41 plasmids. […] The TDG-treated 1 day spectrum was dominated by two clonal mutations of equal frequency (codon 16 AAG to AGG and intronic C to T mutations). Because it is unlikely that the intronic mutation would affect Ras activity and the two clonal mutations were found in the same frequency, these mutations may be allelic, belonging to a clonally proliferating population. […] (Chakravarti D., et al., Oncogene, 20, 7945-7953 (2001).)"}, "mouse skin DNA": {"tested_on": "mouse skin DNA", "assay": "DNA adducts formed in mouse skin by PAH", "type": "in vivo"}, "Harvey (H)-ras oncogene": {"tested_on": "Harvey (H)-ras oncogene", "assay": "H-ras mutations in mouse skin papillomas initiated by PAH", "type": "in vivo", "conditions": "codon 61, skin papillomas"}, "cloned H-ras gene (pWT)": {"tested_on": "cloned H-ras gene (pWT)", "assay": "Mutations after PCR of pWT plasmid treated in vitro, with or without TDG", "conditions": "pWT DNA", "text": "FIGS. 4A-D depict H-ras mutations induced by DB[a,l]P or its metabolite, anti-DB[a/l]PDE. Wild type sequences and nucleotide numbers (GenBank accession No. U89950) are indicated below and mutations are indicated above the line. (A) PCR artifact mutations induced in untreated skin DNA and in a cloned H-ras gene (pWT) treated with anti-DB[a,l]PDE or with acid. Under the treatment conditions, anti-DB[a,l]PDE induces 1 adduct per 1000 bases and acid induces 1 depurination per 170 bases (Chakravarti, D. Et al., Mutat. Res., 456, 17-32 (2000)). (B) H-ras mutations in mouse skin DNA after treatment with 200 nmol DB[a,l]P in 100 μL acetone. At 12 h-1 d, the spectra contained mostly A/T to G/C mutations. At days 2 and 3, multiple codon 61 mutations were observed. At 4 d, no clear pattern of mutations could be determined. At days 5 and 6, multiple codon 52 (CTA to CCA) mutations were observed. […] (C) H-ras mutations in mouse skin DNA after treatment with 200 nmol of anti-DB[a,l]PDE in 100 μL acetone. Fifty to sixty percent of mutations between days 1 to 4 were A/T to G/C mutations. (D) H-ras mutations after TDG treatment of DNA from anti-DB[a,l]PDE-treated pWT and from DB[a,l]P- or anti-DB[a,l]PDE-treated mouse skin. […] These mutations were also observed at days 2 and 3. In addition, at days 2 and 3, multiple codon 13 (GGC to GTC) mutations were observed.\nOn the other hand, anti-DB[a,l]PDE formed approximately 50% A/T to G/C mutations, which correlated with 48.5% formation of anti-DB[a,l]PDE-Ade stable adducts in mouse skin DNA (Table 2). […] Studies conducted in other laboratories also indicate that nucleotide excision repair of bulky stable adducts is error-free. When the pWT plasmid was treated with anti-DB[a,l]PDE in vitro (97% bulky stable adducts) and subjected to PCR amplification, A/T to G/C mutations was also found to constitute 50% of all mutations (5 out of 10) (FIG. 4A). These mutations are induced by translesional synthesis over bulky stable adducts by the PCR polymerases. If, as has been proposed by others, only a small population of PAH-induced bulky stable adducts is removed by pre-replication repair, a large fraction of anti-DB[a,l]PDE-induced adducts would persist in the mouse skin DNA. It is, therefore, possible that the mutations found in anti-DB[a,l]PDE-treated mouse skin DNA are adduct-induced PCR artifacts. The similarity of the frequencies of A/T to G/C mutations in vitro and in skin is consistent with this idea."}}, "data": [{"smiles": "C[C@]12CC[C@@H]3c4ccc(O)c(O)c4CC[C@H]3[C@@H]1CC[C@@H]2O", "note": "[4-OHE2, 4-hydroxyestradiol]", "values": [{"measurement": "level of stable adducts compared to the depurinating adducts", "setting": "DNA", "result": "≤ 0.02", "unit": "%"}]}, {"smiles": "c1ccc2c(c1)cc1ccc3cccc4c5ccccc5c2c1c34", "note": "[DB[a,l]P, dibenzo[a,l]pyrene]", "values": [{"measurement": "H-ras genes in treated skin containing the codon 61 mutation", "setting": "[1]; 200 nmol, at one day", "result": 0.1, "unit": "%"}, {"measurement": "H-ras genes containing the codon 61 mutation, maximum", "setting": "[1]; 200 nmol, between 3 and 4 days after treatment", "result": 5, "unit": "%"}, {"measurement": "level of codon 61 mutations, subsequently reduced to background levels", "setting": "[1]; after days 3-4", "result": 0.0001, "unit": "%"}, {"measurement": "A/T to G/C mutations, percent of total mutations", "setting": "H-ras gene; day 1, +TDG", "result": 20, "unit": "%"}, {"measurement": "A/T to G/C mutations/total mutations", "setting": "H-ras gene; day 1, +TDG", "result": "2/10"}, {"measurement": "A/T to G/C mutations, percent of total mutations", "setting": "H-ras gene; day 1, −TDG", "result": 90, "unit": "%"}, {"measurement": "A/T to G/C mutations/total mutations", "setting": "H-ras gene; day 1, −TDG", "result": "10/11"}, {"measurement": "A/T to G/C mutations, percent of total mutations", "setting": "H-ras gene; day 2, +TDG", "result": 27, "unit": "%"}, {"measurement": "A/T to G/C mutations/total mutations", "setting": "H-ras gene; day 2, +TDG", "result": "6/22"}, {"measurement": "A/T to G/C mutations, percent of total mutations", "setting": "H-ras gene; day 2, −TDG", "result": 31, "unit": "%"}, {"measurement": "A/T to G/C mutations/total mutations", "setting": "H-ras gene; day 2, −TDG", "result": "11/35"}, {"measurement": "A/T to G/C mutations, percent of total mutations", "setting": "H-ras gene; day 3, +TDG", "result": 32, "unit": "%"}, {"measurement": "A/T to G/C mutations/total mutations", "setting": "H-ras gene; day 3, +TDG", "result": "8/25"}, {"measurement": "A/T to G/C mutations, percent of total mutations", "setting": "H-ras gene; day 3, −TDG", "result": 31, "unit": "%"}, {"measurement": "A/T to G/C mutations/total mutations", "setting": "H-ras gene; day 3, −TDG", "result": "7/22"}, {"measurement": "depurinations through depurinating adducts versus spontaneous base loss", "setting": "mouse skin DNA; spontaneous: 10,000-20,000 depurinations/cell/day", "result": "approximately 120 fold"}, {"measurement": "H-ras Mutations, No. of mutations/No. of mice, CAA→CTA", "setting": "Harvey (H)-ras oncogene", "result": "10/12 CAA→CTA"}]}, {"smiles": "Cc1c2ccccc2c(C)c2c1ccc1ccccc12", "note": "[DMBA, 7,12-dimethylbenz[a]anthracene]", "values": [{"measurement": "H-ras Mutations, No. of mutations/No. of mice, CAA→CTA", "setting": "Harvey (H)-ras oncogene", "result": "4/4 CAA→CTA"}]}, {"smiles": "OC1c2cc3ccc4cccc5c6ccccc6c(c2C2OC2C1O)c3c45", "note": "(stereo not drawn) [anti-DB[a,l]PDE, anti-dibenzo[a,l]pyrene-11,12-dihydrodiol-13,14-epoxide]", "values": [{"measurement": "A/T to G/C mutations formed, share of mutations", "setting": "H-ras gene; mouse skin", "result": "approximately 50%"}, {"measurement": "A/T to G/C mutations, percent of total mutations", "setting": "H-ras gene; day 1, +TDG", "result": 80, "unit": "%"}, {"measurement": "A/T to G/C mutations/total mutations", "setting": "H-ras gene; day 1, +TDG", "result": "4/5"}, {"measurement": "A/T to G/C mutations, percent of total mutations", "setting": "H-ras gene; day 1, −TDG", "result": 62.5, "unit": "%"}, {"measurement": "A/T to G/C mutations/total mutations", "setting": "H-ras gene; day 1, −TDG", "result": "5/8"}, {"measurement": "depurinating adducts formed, share of adducts", "setting": "mouse skin DNA; DNA", "result": 3, "unit": "%"}, {"measurement": "stable adducts formed, share of adducts", "setting": "mouse skin DNA; DNA", "result": 97, "unit": "%"}, {"measurement": "Ade stable adducts formed", "setting": "mouse skin DNA; mouse skin DNA", "result": 48.5, "unit": "%"}, {"measurement": "A/T to G/C mutations, percent of total mutations", "setting": "cloned H-ras gene (pWT); +TDG", "result": 60, "unit": "%"}, {"measurement": "A/T to G/C mutations/total mutations", "setting": "cloned H-ras gene (pWT); +TDG", "result": "3/5"}, {"measurement": "A/T to G/C mutations, percent of total mutations", "setting": "cloned H-ras gene (pWT); −TDG", "result": 50, "unit": "%"}, {"measurement": "A/T to G/C mutations/total mutations", "setting": "cloned H-ras gene (pWT); −TDG", "result": "5/10"}]}]}
